Bounds are passed on as bounds.

The experiment has as its system HEK293-STF3A cells. Put plainly: STF3A assay (luciferase reporter). The experiment is classed as cell-based, Human. The note with it: Homo sapiens, 24 h, 1 day of treatment. From the text:
HEK293-STF cell line was modified from Human embryonic kidney cell line HEK293 transfected with the STF reporter. HEK293-STF3A cell line was further modified from HEK293-STF cell line to express Wnt3A. This cell line was used to identify compounds that regulate either early or late signaling components of the Wnt pathway. These two cell lines were obtained from David Virshup's laboratory, Duke-NUS. L-Wnt3A (ATCC, #CRL-2647) cell line was used for providing Wnt3A conditioned media. The three cell lines were grown in DMEM with 10% FBS incubated in 37° C. with 5% CO2.
2×10^4 HEK293-STF3A cells in 75 μl culture media were seeded in each well of white 96 well plates (Greiner #655098) and incubated overnight at 37° C. 25 μl serially diluted compound was added to the cells to give final concentration of 50 μM to 1.5 nM. After 1 day of treatment, 100 μl of Steady-Glo Luciferase Assay reagent (#E2520, Promega) was added to each well and incubated for 10 minutes at room temperature. Luminescence was measured using Tecan Safire2 plate reader.
On the technique in general: In a reporter assay the amount or activity of a reporter protein is the signal.
One may read the IC50 as the concentration that inhibits the measured activity by half. In the case of `Cc1cc2n(n1)CCCN2C(=O)CCC(=O)Nc1ccc(-c2ccccc2)cc1` [Compound 33, N-([1,1′-biphenyl]-4-yl)-4-(2-methyl-6,7-dihydropyrazolo[1,5-a]pyrimidin-4(5H)-yl)-4-oxobutanamide], the IC50 was < 0.1 µM.

In the case of `Cc1cc2n(n1)CCCN2C(=O)CCC(=O)Nc1ccc(-c2ccccn2)cc1` [Compound 34, 4-(2-methyl-6,7-dihydropyrazolo[1,5-a]pyrimidin-4(5H)-yl)-4-oxo-N-(4-(pyridin-2-yl)phenyl)butanamide], the IC50 is < 0.1 µM.

For `Cc1cc2n(n1)CCCN2C(=O)CCC(=O)Nc1ccc(-c2cccnc2)cc1` [Compound 35, 4-(2-methyl-6,7-dihydropyrazolo[1,5-a]pyrimidin-4(5H)-yl)-4-oxo-N-(4-(pyridin-3-yl)phenyl)butanamide], the IC50 is < 0.1 µM.

Consider `Cc1cc2n(n1)CCCN2C(=O)CCC(=O)Nc1ccc(-c2ccncc2)cc1` [Compound 36, 4-(2-methyl-6,7-dihydropyrazolo[1,5-a]pyrimidin-4(5H)-yl)-4-oxo-N-(4-(pyridin-4-yl)phenyl)butanamide], for which the IC50 is < 1 µM.

On to `Cc1cc2n(n1)CCCN2C(=O)CCC(=O)Nc1ccc(-c2cccnn2)cc1` [Compound 37, 4-{2-methyl-5H,6H,7H-pyrazolo[1,5-a]pyrimidin-4-yl}-4-oxo-N-[4-(pyridazin-3-yl)phenyl]butanamide], for which the IC50 was < 1 µM.

Turning to `Cc1cc2n(n1)CCCN2C(=O)CCC(=O)Nc1ccc(-c2ccncn2)cc1` [Compound 38, 4-(2-methyl-6,7-dihydropyrazolo[1,5-a]pyrimidin-4(5H)-yl)-4-oxo-N-(4-(pyrimidin-4-yl)phenyl)butanamide], the IC50 was > 10 µM.

On to `Cc1cc2n(n1)CCCN2C(=O)CCC(=O)Nc1ccc(-c2cncnc2)cc1` [Compound 39, 4-{2-methyl-5H,6H,7H-pyrazolo[1,5-a]pyrimidin-4-yl}-4-oxo-N-[4-(pyrimidin-5-yl)phenyl]butanamide], for which the half-inhibitory concentration (IC50) is < 0.1 µM.

On to `Cc1cc2n(n1)CCCN2C(=O)CCC(=O)Nc1ccc(-c2ncccn2)cc1` [Compound 40, 4-{2-methyl-5H,6H,7H-pyrazolo[1,5-a]pyrimidin-4-yl}-4-oxo-N-[4-(pyrimidin-2-yl)phenyl]butanamide], for which the IC50 is < 1 µM.

`Cc1cc2n(n1)CCCN2C(=O)CCC(=O)Nc1ccc(-c2ccccn2)cn1` [Compound 41, N-([2,3′-bipyridin]-6′-yl)-4-(2-methyl-6,7-dihydropyrazolo[1,5-a]pyrimidin-4(5H)-yl)-4-oxobutanamide]: the IC50 was < 0.1 µM.

With `Cc1cc2n(n1)CCCN2C(=O)CCC(=O)Nc1ccc(-c2ccccc2)nc1` [Compound 43, 4-(2-methyl-6,7-dihydropyrazolo[1,5-a]pyrimidin-4(5H)-yl)-4-oxo-N-(6-phenylpyridin-3-yl)butanamide], the IC50 is < 0.1 µM.

For `Cc1cc2n(n1)CCCN2C(=O)CCC(=O)Nc1ccc(-c2ccccc2)cn1` [Compound 44, 4-(2-methyl-6,7-dihydropyrazolo[1,5-a]pyrimidin-4(5H)-yl)-4-oxo-N-(5-phenylpyridin-2-yl)butanamide], the concentration for half-maximal inhibition (IC50) was < 0.1 µM.

In the case of `Cc1cc2n(n1)CCCN2C(=O)CCC(=O)Nc1ccc(-c2ccccc2)nn1` [Compound 45, 4-(2-methyl-6,7-dihydropyrazolo[1,5-a]pyrimidin-4(5H)-yl)-4-oxo-N-(6-phenylpyridazin-3-yl)butanamide], the half-inhibitory concentration (IC50) is < 0.1 µM.

Regarding `Cc1cc2n(n1)CCCN2C(=O)CCC(=O)Nc1ncc(-c2ccccc2)cn1` [Compound 46, 4-{2-methyl-5H,6H,7H-pyrazolo[1,5-a]pyrimidin-4-yl}-4-oxo-N-(5-phenylpyrimidin-2-yl)butanamide], the 50% inhibitory concentration (IC50) is < 1 µM.

Turning to `Cc1cc2n(n1)CCCN2C(=O)CCC(=O)Nc1cnc(-c2ccccc2)cn1` [Compound 47, 4-(2-methyl-6,7-dihydropyrazolo[1,5-a]pyrimidin-4(5H)-yl)-4-oxo-N-(5-phenylpyrazin-2-yl)butanamide], the IC50 is < 0.1 µM.

The values are drawn from patent US10189842B2 (Agency for Science, Technology and Research, priority 2013, dated 2019).
